Common to all, as to test: NCI anticancer screen, dose series, 48 h
The subject of assay [1] is CAKI-1 renal.
Assay [2] has as its system DU-145 prostate.
Assay [3] has as its system HL-60(TB) leukemia.
Assay [4] deals with HOP-92 NSCLC.
The test system of assay [5] is KM12 colon.
Assay [6] concerns SK-MEL-28 melanoma.
Assay [7] deals with SK-MEL-5 melanoma.
The subject of assay [8] is UACC-257 melanoma.

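Method: 48-hour compound exposure of cells in 96-well plates, five concentrations, linear interpolation of endpoints. GI50 = concentration required for 50% inhibition of growth. Definition used: TGI = concentration required for complete inhibition of growth.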

`O=C(Nc1ccc(-n2ccc3c(NC(=O)c4ccccc4)nccc32)cc1)c1ccc(N2CCOCC2)c(C(F)(F)F)c1`: the GI50 in assay [1] was 0.0565 µM; in assay [2] it was 0.105 µM; in assay [3], 1.01 µM; in assay [4], 1.96 µM; in assay [5] it was 0.0707 µM; in assay [6] it was 0.275 µM. Besides, the values for the GI50 in assay [7] and in assay [8] were 0.0928 µM and 3.61 µM, respectively. In addition, the TGI in assay [1] was 15.7 µM; in assay [2], > 87.6 µM; in assay [3], > 100 µM; in assay [4], 18.1 µM; in assay [5] it was 18 µM; in assay [6], > 47.4 µM. In addition, the TGI was found to be 10.8 µM in assay [7] and 55.5 µM in assay [8].

Turning to `C#CCN(Cc1nc2cc(C(F)(F)F)ccc2nc1-c1ccccc1)c1ccc(F)cc1`, the GI50 in assay [1] was 62.2 µM; in assay [2], 39.4 µM; in assay [3], 21.8 µM; in assay [4] it was 24 µM; in assay [5], 21.3 µM; in assay [6], 44.2 µM. For the same compound, the GI50 in assay [7] was 16.8 µM; in assay [8], 18.7 µM. Besides, the TGI in assay [1] was 92.2 µM; in assay [2], > 100 µM; in assay [3] it was > 100 µM; in assay [4] it was 86.8 µM; in assay [5] it was 60.9 µM; in assay [6] it was > 100 µM. For the same compound, the TGI in assay [7] was 33.3 µM; in assay [8] it was 63 µM.

Consider `COc1ccc(-c2cc(-c3ccc(Cl)cc3)nc(SCCCCCCC(=O)NO)n2)cc1`, for which the GI50 in assay [1] was 1.32 µM; in assay [2], 1.76 µM; in assay [3], 1.19 µM; in assay [4] it was 1.17 µM; in assay [5] it was 2.2 µM; in assay [6], 2.43 µM. The GI50 in assay [7] is 1.14 µM; in assay [8] it was 1.88 µM. Besides, the TGI was 7.47 µM in assay [1]; 15.4 µM in assay [2]; 2.8 µM in assay [3]; 3.67 µM in assay [4]; 13.1 µM in assay [5]; 11.7 µM in assay [6]. In addition, the figures for the TGI in assay [7] and in assay [8] were 2.52 µM and > 50 µM, respectively.

`COc1ccccc1N1CCN(CCCOc2ccc(C(=O)/C=C3/C(=O)Nc4ccccc43)cc2)CC1`: the GI50 in assay [1] was 15.5 µM; in assay [2], 15 µM; in assay [3], 6.09 µM; in assay [4], 2.59 µM; in assay [5], 8.2 µM; in assay [6], 14.6 µM. Also, the GI50 was 6.9 µM in assay [7] and 9.79 µM in assay [8]. In addition, the TGI in assay [1] is > 62.8 µM; in assay [2], 38.1 µM; in assay [3], 27.2 µM; in assay [4] it was 22.2 µM; in assay [5], 24.8 µM; in assay [6] it was 33.4 µM. The TGI in assay [7] was found to be 18.4 µM; in assay [8], 35.5 µM.

Turning to `Cc1ccccc1C[P+](c1ccccc1)(c1ccccc1)c1ccccc1`, the GI50 is 23.6 µM in assay [1]; 2.18 µM in assay [2]; 1.58 µM in assay [3]; 0.433 µM in assay [4]; 0.804 µM in assay [5]; 2.1 µM in assay [6]. The GI50 was 0.375 µM in assay [7] and 0.371 µM in assay [8]. Further, the TGI was > 100 µM in assay [1]; > 100 µM in assay [2]; 5.75 µM in assay [3]; 3.77 µM in assay [4]; 11 µM in assay [5]; 44 µM in assay [6]. Moreover, the TGI in assay [7] worked out at 1.58 µM; in assay [8] it was 4.65 µM.

Consider `C[C@@]1(O)CCC[C@H]1n1c(=O)c(C(F)F)cc2cnc(NC3CCN(S(C)(=O)=O)CC3)nc21`, for which the GI50 in assay [1] is 3.45 µM; in assay [2], 2.18 µM; in assay [3] it was 1.14 µM; in assay [4], 2.04 µM; in assay [5] it was 1.8 µM; in assay [6] it was 2.06 µM. For the same compound, the GI50 was 1.15 µM in assay [7] and 2.31 µM in assay [8]. For the same compound, the TGI in assay [1] was > 100 µM; in assay [2] it was 54.7 µM; in assay [3] it was 5.38 µM; in assay [4], 6.8 µM; in assay [5], > 100 µM; in assay [6], 10.9 µM. Besides, the TGI was 7.91 µM in assay [7] and 22.8 µM in assay [8].

As to `CCN(CC)CCOc1ccc(Cc2ccccc2)cc1`, the GI50 is 29.5 µM in assay [1]; 32.7 µM in assay [2]; 5.61 µM in assay [4]; 25.6 µM in assay [5]; 38.5 µM in assay [6]; 15.1 µM in assay [7]. Moreover, the GI50 in assay [8] is 22.5 µM. In addition, the TGI was > 100 µM in assay [1]; > 100 µM in assay [2]; 51.1 µM in assay [4]; > 100 µM in assay [5]; > 100 µM in assay [6]; 28.5 µM in assay [7]. Also, in assay [8], the TGI amounted to 63 µM.

Turning to `Clc1nc(-c2ccccc2)nc(Cl)c1Cl`, the TGI in assay [1] is 8.62 µM; in assay [2], 29.9 µM; in assay [3], 33 µM; in assay [4] it was 30.3 µM; in assay [5] it was 25.3 µM; in assay [6], 31.6 µM. The results for the TGI in assay [7] and in assay [8] were 26.7 µM and 28.2 µM, respectively.

As to `O=c1c(-c2nc3ccccc3[nH]2)cc2ccccc2n1Cc1cn(Cc2ccccc2Cl)nn1`, the GI50 in assay [1] is 1.93 µM; in assay [2] it was 1.72 µM; in assay [3], 6.22 µM; in assay [4], 1.85 µM; in assay [5] it was 2.5 µM; in assay [6] it was 1.82 µM. For the same compound, in assay [8], the GI50 is 3.18 µM. In addition, the TGI is 4.74 µM in assay [1]; 3.21 µM in assay [2]; > 100 µM in assay [3]; 4.93 µM in assay [4]; 7.72 µM in assay [5]; 3.35 µM in assay [6]. In addition, in assay [8], the TGI was determined as 12.6 µM.
